Experimental data from PubChem BioAssay (NCI).
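How tested: cells in 96-well plates exposed to compound for 48 hours at five concentrations. GI50 marks 50% less growth. TGI: total growth inhibition.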

What was measured:
Assay in all cases: growth of human tumour cells (NCI), 48 h
M14 melanoma = system: M14 melanoma
HS 578T breast = system: HS 578T breast
COLO 205 colon = system: COLO 205 colon
IGROV1 ovarian = system: IGROV1 ovarian
OVCAR-4 ovarian = system: OVCAR-4 ovarian
MALME-3M melanoma = system: MALME-3M melanoma
NCI-H226 lung = system: NCI-H226 lung
OVCAR-3 ovarian = system: OVCAR-3 ovarian
SF-295 CNS = system: SF-295 CNS
DU-145 prostate = system: DU-145 prostate
CAKI-1 renal = system: CAKI-1 renal
MDA-MB-231 breast = system: MDA-MB-231 breast
HCC-2998 colon = system: HCC-2998 colon
SK-MEL-28 melanoma = system: SK-MEL-28 melanoma
RPMI-8226 leukemia = system: RPMI-8226 leukemia
OVCAR-5 ovarian = system: OVCAR-5 ovarian
HOP-62 NSCLC = system: HOP-62 NSCLC
KM12 colon = system: KM12 colon
HOP-92 NSCLC = system: HOP-92 NSCLC
HT29 colon = system: HT29 colon
NCI-H23 lung = system: NCI-H23 lung
SW-620 colon = system: SW-620 colon
SK-MEL-2 melanoma = system: SK-MEL-2 melanoma
MOLT-4 leukemia = system: MOLT-4 leukemia
ACHN renal = system: ACHN renal
OVCAR-8 ovarian = system: OVCAR-8 ovarian
SK-MEL-5 melanoma = system: SK-MEL-5 melanoma
UACC-257 melanoma = system: UACC-257 melanoma
UACC-62 melanoma = system: UACC-62 melanoma
SF-539 CNS = system: SF-539 CNS
T-47D breast = system: T-47D breast
SNB-75 CNS = system: SNB-75 CNS
PC-3 prostate = system: PC-3 prostate
NCI/ADR-RES ovarian = system: NCI/ADR-RES ovarian
HCT-15 colon = system: HCT-15 colon
HL-60(TB) leukemia = system: HL-60(TB) leukemia
BT-549 breast = system: BT-549 breast
MDA-MB-435 = system: MDA-MB-435
MCF7 breast = system: MCF7 breast
NCI-H522 lung = system: NCI-H522 lung
LOX IMVI melanoma = system: LOX IMVI melanoma
CCRF-CEM leukemia = system: CCRF-CEM leukemia
EKVX NSCLC = system: EKVX NSCLC
SF-268 CNS = system: SF-268 CNS
UO-31 renal = system: UO-31 renal
A498 renal = system: A498 renal
HCT-116 colon = system: HCT-116 colon
786-0 renal = system: 786-0 renal
NCI-H460 lung = system: NCI-H460 lung
U251 CNS = system: U251 CNS
RXF 393 renal = system: RXF 393 renal
A549 NSCLC = system: A549 NSCLC
SN12C renal = system: SN12C renal

Cc1cccc2c(=O)c3c(sc12)c(NCCCNCCO)nc1ccccc13
GI50 (M14 melanoma): 1810 nM
TGI (M14 melanoma): 3.56 µM
GI50 (HS 578T breast): 1630 nM
TGI (HS 578T breast): 3.62 µM
GI50 (COLO 205 colon): 1610 nM
TGI (COLO 205 colon): 3.24 µM
GI50 (IGROV1 ovarian): 1340 nM
TGI (IGROV1 ovarian): 2960 nM
GI50 (OVCAR-4 ovarian): 1800 nM
TGI (OVCAR-4 ovarian): 3.44 µM
GI50 (MALME-3M melanoma): 1810 nM
TGI (MALME-3M melanoma): 3.5 µM
GI50 (NCI-H226 lung): 1600 nM
TGI (NCI-H226 lung): 3.33 µM
GI50 (OVCAR-3 ovarian): 1740 nM
TGI (OVCAR-3 ovarian): 3.26 µM
GI50 (SF-295 CNS): 1720 nM
TGI (SF-295 CNS): 3.18 µM
GI50 (DU-145 prostate): 1570 nM
TGI (DU-145 prostate): 2960 nM
GI50 (CAKI-1 renal): 1310 nM
TGI (CAKI-1 renal): 2670 nM
GI50 (MDA-MB-231 breast): 1600 nM
TGI (MDA-MB-231 breast): 3.13 µM
GI50 (HCC-2998 colon): 1580 nM
TGI (HCC-2998 colon): 3.06 µM
GI50 (SK-MEL-28 melanoma): 1730 nM
TGI (SK-MEL-28 melanoma): 3.18 µM
GI50 (RPMI-8226 leukemia): 1810 nM
TGI (RPMI-8226 leukemia): 3.81 µM
GI50 (OVCAR-5 ovarian): 1600 nM
TGI (OVCAR-5 ovarian): 3.02 µM
GI50 (HOP-62 NSCLC): 1220 nM
TGI (HOP-62 NSCLC): 2750 nM
GI50 (KM12 colon): 1720 nM
TGI (KM12 colon): 3.25 µM
GI50 (HOP-92 NSCLC): 1210 nM
TGI (HOP-92 NSCLC): 3.24 µM
GI50 (HT29 colon): 1570 nM
TGI (HT29 colon): 3.2 µM
GI50 (NCI-H23 lung): 1660 nM
TGI (NCI-H23 lung): 3.13 µM
GI50 (SW-620 colon): 1430 nM
TGI (SW-620 colon): 2990 nM
GI50 (SK-MEL-2 melanoma): 1750 nM
TGI (SK-MEL-2 melanoma): 3.34 µM
GI50 (MOLT-4 leukemia): 1130 nM
TGI (MOLT-4 leukemia): 2620 nM
GI50 (ACHN renal): 1490 nM
TGI (ACHN renal): 2810 nM
GI50 (OVCAR-8 ovarian): 1710 nM
TGI (OVCAR-8 ovarian): 3.37 µM
GI50 (SK-MEL-5 melanoma): 1780 nM
TGI (SK-MEL-5 melanoma): 3.29 µM
GI50 (UACC-257 melanoma): 1860 nM
TGI (UACC-257 melanoma): 3.54 µM
GI50 (UACC-62 melanoma): 1670 nM
TGI (UACC-62 melanoma): 3.17 µM
GI50 (SF-539 CNS): 1710 nM
TGI (SF-539 CNS): 3.09 µM
GI50 (T-47D breast): 1570 nM
TGI (T-47D breast): 3.5 µM
GI50 (SNB-75 CNS): 1130 nM
TGI (SNB-75 CNS): 2350 nM
GI50 (PC-3 prostate): 1290 nM
TGI (PC-3 prostate): 2750 nM
GI50 (NCI/ADR-RES ovarian): 1730 nM
TGI (NCI/ADR-RES ovarian): 3.26 µM
GI50 (HCT-15 colon): 1510 nM
TGI (HCT-15 colon): 2960 nM
GI50 (HL-60(TB) leukemia): 1820 nM
TGI (HL-60(TB) leukemia): 3.49 µM
GI50 (BT-549 breast): 1850 nM
TGI (BT-549 breast): 4.27 µM
GI50 (MDA-MB-435): 1740 nM
TGI (MDA-MB-435): 3.18 µM
GI50 (MCF7 breast): 1330 nM
TGI (MCF7 breast): 2870 nM
GI50 (NCI-H522 lung): 1650 nM
TGI (NCI-H522 lung): 3.54 µM
GI50 (LOX IMVI melanoma): 1380 nM
TGI (LOX IMVI melanoma): 2760 nM
GI50 (CCRF-CEM leukemia): 1570 nM
TGI (CCRF-CEM leukemia): 3.31 µM
GI50 (EKVX NSCLC): 1570 nM
TGI (EKVX NSCLC): 3000 nM
GI50 (SF-268 CNS): 1400 nM
TGI (SF-268 CNS): 2970 nM
GI50 (UO-31 renal): 1190 nM
TGI (UO-31 renal): 2550 nM
GI50 (A498 renal): 1300 nM
TGI (A498 renal): 2830 nM
GI50 (HCT-116 colon): 1510 nM
TGI (HCT-116 colon): 3.03 µM
GI50 (786-0 renal): 1750 nM
TGI (786-0 renal): 3.4 µM
GI50 (NCI-H460 lung): 1150 nM
TGI (NCI-H460 lung): 2550 nM
GI50 (U251 CNS): 1500 nM
TGI (U251 CNS): 2960 nM
GI50 (RXF 393 renal): 1510 nM
TGI (RXF 393 renal): 2890 nM
GI50 (A549 NSCLC): 1060 nM
TGI (A549 NSCLC): 2640 nM
GI50 (SN12C renal): 1560 nM
TGI (SN12C renal): 3.12 µM
